{"source": "patent US20150224164A1", "about": "“TREATMENT OF AUTISM SPECTRUM DISORDERS USING GLYCYL-L-2-METHYLPROLYL-L-GLUMATIC ACID” (Neuren Pharmaceuticals Limited, priority 2013, published 2015)", "key": {"[1]": {"assay": "Pharmacokinetics after intravenous bolus injection", "type": "in vivo, rat", "method": "Adult male Wistar rats weighing between 180 and 240 g were used to determine the pharmacokinetics of GPE and G2MePE. To facilitate intravenous bolus injections and blood sampling, all rats were surgically implanted with an indwelling jugular venous cannula under halothane anesthesia three days before the experiment. Groups of six rats were given a single intravenous bolus injection of either 30 mg/kg GPE or 10 mg/kg G2MePE dissolved in 0.1M succinate buffer (pH 6.5). Blood samples (about 220 μl each) were collected into heparinized tubes containing Sigma protease inhibitor cocktail for mammalian tissues at 10 and 0 min before injection of either GPE or G2MePE, and 1, 2, 4, 8, 16, 32, 64 and 128 min after injection of either GPE or G2MePE. The samples were centrifuged at 3000 g for 15 min at 4° C. and the plasma removed and stored at −80° C. until extraction and assay by either radioimmunoassay (“RIA”) or reverse phase HPLC. The RIA and HPLC methods used were conventional.\nThe k and half-life (t1/2) were calculated from the slope of the linear regression line in the elimination phase of the semi-logarithmic plot of plasma concentration versus time as: Log C=−kt/2.3+log C0. Results were expressed as mean±standard error."}, "adult MeCP2+/- mice": {"tested_on": "adult MeCP2+/- mice", "assay": "Ocular dominance plasticity, optical imaging (Example 10)", "type": "in vivo, mouse", "conditions": "4 days monocular deprivation, daily i.p.", "method": "Adult (>P60) wild type (SVEV or BL6) and MeCP2 (+/−) mutant females (BL6) are used for this experiment. The wild type control group is composed of both wild type littermates of MeCP2+/− females or wild type age matched SVEV females. For monocular deprivation, animals are anesthetized with Avertin (0.016 ml/g) and the eyelids of one eye is sutured for 4 days. Prior to imaging, the suture is removed and the deprived eye re-opened. Only animals in which the deprivation sutures are intact and the condition of the deprived eye appears healthy are used for the imaging session. For G-2-MePE signaling activation, a solution containing G-2-MePE is injected intra-peritoneally (IP) daily for the entire period of deprivation. For the imaging sessions mice are anesthetized with urethane (1.5 g/kg; 20% of the full dosage is administered IP each 20-30 minutes up to the final dosage, 0.02 ml of cloroprothixene 1% is also injected together with the first administration). The skull is exposed and a custom-made plate is glued on the head to minimize movement. The skull is thinned over V1 with a dremel drill and covered with an agarose solution in saline (1.5%) and a glass coverslip. During the imaging session, the animal is constantly oxygenated, its temperature maintained with a heating blanket and the eyes periodically treated with silicone oil; physiological conditions are constantly monitored. […]"}, "[2]": {"tested_on": "subjects with Rett Syndrome", "assay": "Placebo controlled study in subjects with Rett Syndrome (Example 15)", "type": "in vivo, human", "from_the_text": "Thirty subjects with Rett Syndrome are recruited. Subjects are female and aged between […] (Mean=12.1 SD=4.4). All subjects have an IQ<60 and mutations of the MECP2 gene. Subjects also show ether spike activity in the EEG or an increase in lower frequency bands of the EEG as detected by Fast Fourier Transform (FFT). Subjects are instructed that concomitant medications are to be stable for at least six weeks prior to study. Subjects receiving medication to treat signs of inattention are tested in the morning and instructed to take their medication in the afternoon. Subjects with QTc interval >451 msec are excluded.\nThe study is a randomized double blind placebo controlled parallel study with three doses of either placebo, 10 mg/kg T.I.D oral G-2-MePE for five days, or 30 mg/kg T.I.D. oral G-2-MePE.\nSubjects are tested at baseline using the following instruments: The Rett Syndrome Natural History/Clinical Severity Scale, Aberrant Behavior Checklist Community Edition (ABC), Vinelands, Clinical Global Impression of Severity (CGI-S) and their carers completed the Caregiver Strain Questionnaire (CSQ).\nSubjects are brought into clinic on an inpatient basis to enable initial baseline recordings of EEG, ECG and respiratory rate continuously for 24 hours using polysomnography technology. Hand movements are also recorded using the Q-Sensor™. Derived EEG measures include: spikes per unit time in the EEG, overall power of frequency bands of the EEG, QTc and heart rate variability (HRV), and respiratory irregularities.\nAdverse events are also recorded using standard safety measures and the SMURF elicitation of adverse events\nStatistically, the effect of treatment with G-2-MePE is analysed by conducting a repeated analysis of covariance (ANCOVA) on the effect of treatment on change from baseline scores."}, "[3]": {"tested_on": "hippocampal CA1 neurons of mecp2 null mutant mice", "assay": "Dendritic arborization and spine analysis, Golgi staining (Example 9)", "type": "in vivo, mouse", "method": "We assess the effects of G-2-MePE treatment on dendrites. Transgenic mecp2 knockout mice (n=15 to 20) were administered G-2-MePE intraperitoneally at a dose of 20 mg/kg once daily. Following sacrifice dendritic spine density, spine length and aborization were examined after Golgi staining after nine weeks, as per the Table 1 below:\nDendritic length was assessed by distance from the soma of representative hippocampal CA1 neurons from 9 week old male mecp2 null mutant mice treated with either saline (3 neurons analysed from 3 separate mice, n=9) or G-2-MePE (20 mg/kg i.p. 1/day, from week 4; 3 neurons analysed from 3 separate mice, n=9)."}, "[4]": {"conditions": "30 mg/kg T.I.D. oral vs placebo"}}, "note": "“Also recorded” adds a separate entry of the source. Where a SMILES comes first, the peptide text is derived from it.", "data": [{"smiles": "C[C@@]1(C(=O)N[C@@H](CCC(=O)O)C(=O)O)CCCN1C(=O)CN", "note": "[Example G-2-MePE, Glycyl-L-2-methylprolyl-L-glutamic acid] (HELM PEPTIDE1{G.[C[C@@]1(C(=O)[*:2])CCCN1[*:1]].E}$$$$V2.0)", "values": [{"measurement": "maximal plasma concentration relative to GPE", "setting": "[1]; G-2-MePE 10 mg/kg vs GPE 30 mg/kg i.v.", "value": "about 4.8 times"}, {"measurement": "t1/2 relative to GPE", "setting": "[1]; i.v.", "value": "over 4 times"}, {"measurement": "half-life", "setting": "[1]; male, Wistar, rat, plasma, iv, single i.v. bolus, GPE 30 mg/kg, G-2-MePE 10 mg/kg", "value": "20.7 ± 0.35", "unit": "min"}, {"measurement": "clearance", "setting": "[1]; male, Wistar, rat, plasma, iv, single i.v. bolus, GPE 30 mg/kg, G-2-MePE 10 mg/kg, read-out: estimated clearance from plasma (converted)", "value": 0.502, "unit": "mL/min"}, {"measurement": "first order rate constant", "setting": "[1]; single i.v. bolus, GPE 30 mg/kg, G-2-MePE 10 mg/kg", "value": "0.033 ± 0.001", "unit": "min⁻¹"}, {"measurement": "peak plasma concentration", "setting": "[1]; single i.v. bolus, GPE 30 mg/kg, G-2-MePE 10 mg/kg, mean±standard error", "value": "191 ± 16.1", "unit": "µg/mL"}, {"measurement": "ocular dominance plasticity", "setting": "adult MeCP2+/- mice", "value": "reduces the OD plasticity"}, {"measurement": "EEG spike activity", "setting": "[2]; [4]", "value": "decreases spike activity"}, {"measurement": "power of the delta band of the EEG", "setting": "[2]; [4]", "value": "decreases the power of the delta band"}, {"measurement": "subscales Nonverbal Communication, Epilepsy/Seizures, Hand use", "setting": "[2]; [4]", "value": "significant effects"}, {"measurement": "Serious Adverse Events", "setting": "[2]; 10 or 30 mg/kg T.I.D. oral", "value": "No Serious Adverse Events"}, {"measurement": "adverse events / tolerability", "setting": "[2]; 10 or 30 mg/kg T.I.D. oral", "value": "no more adverse events than are present during treatment with placebo; also recorded: well tolerated"}, {"measurement": "increases in QTC", "setting": "[2]; 10 or 30 mg/kg T.I.D. oral", "value": "No instances of increases in QTC"}, {"measurement": "respiratory rate or heart rate variability", "setting": "[2]; 10 or 30 mg/kg T.I.D. oral", "value": "No effects"}, {"measurement": "Rett Syndrome Natural History/Clinical Severity Score, overall", "setting": "[2]; human, in vivo", "value": "no significant effect overall"}, {"measurement": "spikes per unit time in the EEG, overall", "setting": "[2]; overall treatment effect", "value": "significant overall reduction"}, {"measurement": "total hand movements per twenty-four hour period (Q-Sensor)", "setting": "[2]; significant for 30 mg/kg T.I.D.", "value": "reduces total hand movements"}, {"measurement": "dendritic length by distance from the soma", "setting": "[3]; 20 mg/kg i.p. 1/day from week 4, vs saline", "value": "produced longer dendrites"}, {"measurement": "dendritic arborization and dendritic spine length", "setting": "[3]; 20 mg/kg i.p. once daily, 9 week old mice", "value": "improved dendritic arborization and increased dendritic spine length"}]}]}
